We go through 3 molecules from publication PMC12006963, “Application of Deuterium in an M1 Positive Allosteric Modulator Back-Up Program: The Discovery of VU6045422” (ACS Chemical Neuroscience, 2025).

Holding throughout (format): in vitro ADME
Data set [1] is described as follows: Plasma protein binding, equilibrium dialysis (human). Conditions: pH 7.4, read-out: fu,plasma. Here is the method: (§1) page 5: Drug Metabolism Methods: In vitro Plasma protein binding and Brain homogenate binding: Determination of fraction unbound (f u) in plasma was conducted in vitro via equilibrium dialysis using HTDialysis (HTD) membrane plates. The top half of the plate was filled with 100 uL of Dubelco’s Phosphate Buffered Saline, pH 7.4 (DPBS). Compounds were diluted into plasma from each species (5 µM final concentration), which was aliquoted in triplicate to the ‘bottom half’ of the prepared HTD plate wells. The HTD plate was sealed and incubated for 6 hours at 37 °C. Following incubation, each well (both top and bottom halves) were transferred (20 µL) to the corresponding wells of a 96- shallow-well (V-bottom) plate. The daughter plates were then matrix-matched (DPBS side wells received equal volume of plasma, and plasma side wells received equal volume of DPBS), and extraction solution (120 µL; acetonitrile containing 50 nM carbamazepine as IS) was added to all wells of both daughter plates to precipitate protein and extract test article. The plates were then sealed and centrifuged (3500 rcf) for 10 minutes at ambient temperature. Supernatant (60 µL) from each well of the daughter plates was then transferred to the corresponding wells of new daughter plates (96-shallow-well, V bottom) containing water (Milli-Q, 60 µL/well), and the plates were sealed in preparation for LC-MS/MS analysis (see LC-MS/MS analysis method below). The unbound fraction (f u) was calculated following the equation below, and mean values for each species were calculated from 3 replicates. […] Fraction unbound for both plasma and brain samples was determined using Equation 4. f = Concbuffer u Concplasma Equation 4 Determination of fraction unbound in plasma. […]
For orientation: In equilibrium dialysis only unbound substance equilibrates across the membrane.

Data set [2] can be described thus: Plasma protein binding, equilibrium dialysis (cyno). As to conditions: cynomolgus monkey, pH 7.4, read-out: fu,plasma. As to the method:
as §1

A further data set deals with T1, P-gp (MDR1) (Homo sapiens, UniProt P08183).
T1 construct: host or cells: MDR1-MDCK cell monolayers
T1 sequence (P08183 whole entry): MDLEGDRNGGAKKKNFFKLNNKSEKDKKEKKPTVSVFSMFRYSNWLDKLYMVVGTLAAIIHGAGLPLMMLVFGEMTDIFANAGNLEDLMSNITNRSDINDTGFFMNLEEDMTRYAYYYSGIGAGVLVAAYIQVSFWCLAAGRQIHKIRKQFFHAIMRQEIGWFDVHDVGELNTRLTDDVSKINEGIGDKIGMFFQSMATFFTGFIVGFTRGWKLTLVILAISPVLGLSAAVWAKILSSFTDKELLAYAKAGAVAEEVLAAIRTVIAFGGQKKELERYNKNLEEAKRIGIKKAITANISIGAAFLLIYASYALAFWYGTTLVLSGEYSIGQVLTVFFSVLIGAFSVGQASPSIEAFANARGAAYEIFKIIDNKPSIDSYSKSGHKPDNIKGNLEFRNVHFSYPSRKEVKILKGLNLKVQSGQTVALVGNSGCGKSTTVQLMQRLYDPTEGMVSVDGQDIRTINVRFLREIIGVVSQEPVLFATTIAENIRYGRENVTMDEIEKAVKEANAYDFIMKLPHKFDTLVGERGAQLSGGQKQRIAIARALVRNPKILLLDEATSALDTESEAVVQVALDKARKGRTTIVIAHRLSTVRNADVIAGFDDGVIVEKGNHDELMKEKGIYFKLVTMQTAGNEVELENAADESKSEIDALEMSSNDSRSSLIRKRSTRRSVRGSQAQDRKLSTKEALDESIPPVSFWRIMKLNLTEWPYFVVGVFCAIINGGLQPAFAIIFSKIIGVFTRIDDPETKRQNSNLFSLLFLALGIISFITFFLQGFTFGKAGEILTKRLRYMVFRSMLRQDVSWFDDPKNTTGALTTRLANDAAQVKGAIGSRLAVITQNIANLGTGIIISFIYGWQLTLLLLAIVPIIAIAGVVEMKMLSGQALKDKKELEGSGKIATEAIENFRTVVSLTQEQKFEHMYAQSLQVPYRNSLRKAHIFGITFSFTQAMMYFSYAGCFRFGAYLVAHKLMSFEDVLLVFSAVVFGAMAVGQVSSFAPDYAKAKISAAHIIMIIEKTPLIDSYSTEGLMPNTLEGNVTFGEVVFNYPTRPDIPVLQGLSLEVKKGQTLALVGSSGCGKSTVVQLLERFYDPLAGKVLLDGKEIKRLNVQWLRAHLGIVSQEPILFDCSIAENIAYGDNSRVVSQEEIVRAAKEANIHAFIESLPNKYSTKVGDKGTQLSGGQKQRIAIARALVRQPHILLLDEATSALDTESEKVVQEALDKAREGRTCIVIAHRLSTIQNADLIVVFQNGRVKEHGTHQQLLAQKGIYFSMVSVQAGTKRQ
The experiment in a line: MDCK-MDR1 monolayer permeability and efflux. Set-up: dose or concentration left out as unconfirmed. Conditions: dog; for Papp at 2 h: MDCK-MDR1; for efflux ratio at 2 h: MDCK-MDR1 efflux ratio, read-out: P-gp ER. Here is the method: page 9: Brain plasma concentration ratio (Kp) was calculated by dividing brain concentration by plasma concentration for each animal. Unbound brain to unbound plasma concentration ratio (Kp,uu) is calculated using the following formula: Kp,uu = (Brain ng/g x brain fu)/(plasma ng/ml x plasma fu). Pharmacokinetic profiles in rats following oral single escalating doses Single escalating oral dosing in Sprague-Dawley rats was performed at Frontage Laboratories according to their non-GLP Standard Operating Procedure and IACUC protocols. In short, compounds were formulated in 10% Tween 80 in water and dosed at 10 mg/kg. At different times, arterial blood was collected from a femoral artery catheter, and compound concentration was determined in plasma by LC-MS/MS following their non-GLP protocol. PK parameters were determined using Phoenix WinNonlin software (version 6.3). In-vitro determination of blood-brain barrier penetration potential Blood-brain barrier penetration was determined using MDR1-MDCK cell monolayers by Absorption Systems, following their protocol. In short, compounds were incubated […] final concentration on one side of the cell monolayer for 2 hours. Compounds concentration on either side of the monolayer was determined by LC-MS/MS and apparent permeability and efflux ratio were determined as described in Wang, Q. et al.1 Behavioral Manifestations of Seizure Activity To evaluate induction of behavioral manifestation of seizure activity, C57Bl/6 mice received administration of vehicle or 100 mg/kg M1 PAM 5. Compound was formulated in 30% Captisol (pH 7.0) at a concentration of 10 mg/mL and injected i.p. at 10 ml/kg (n = 4). Animals were monitored continuously and scored for behavioral manifestations of seizure activity at 5, 15, 30 min, and 1 h. Behavioral manifestations of seizures were scored using a modified Racine scoring system. Briefly, a score of 0 represents no behavior alterations; score 1, immobility, mouth and facial movements, or facial clonus; score 2, head nodding, tail extension; score 3, forelimb clonus, repetitive movements; score 4, rearing and tonic clonic seizure; and score 5, continuous rearing and falling, severe generalized tonic clonic seizure. Novel Object Recognition Task S9

A short description of data set [3]: Hepatocyte metabolite identification (rat). As to conditions: rat hepatocytes, 4 h incubation. Here is the method: Prior to full characterization of deuterated analogues 3 and 5, they were incubated in rat, dog, monkey, and human hepatocytes, along with 1, to determine the amount of parent remaining, as well as the degree of undesired oxidative metabolites 2, 4, and 6 (Figure 2). […] For the gem-dideutero congener 3, metabolic stability was improved in vitro. […] Thus, in hepatocytes in vitro, the kinetic isotope effect engendered greater metabolic stability of the labile hot spot on the lactam. It remained to be seen if this effect would translate in vivo, but we first had to assess the impact of the deuterated analogues on molecular pharmacology, in vitro DMPK, standard low-dose in vivo DMPK and, if warranted, in vivo efficacy in a rat novel object recognition (NOR) behavioral assay.

By Papp is commonly meant a coefficient for how fast a substance crosses the barrier. For `Cn1cc2c(-c3cc(F)c(CN4Cc5ncccc5C4=O)c(F)c3)cccc2n1` [compound 1], the fraction unbound at 6 h, 5 µM in data set [1] turned out to be 0.034; in data set [2] it was 0.059. In addition, the apparent permeability coefficient (Papp) at 2 h at P-gp (MDR1) amounted to 31.1 ×10⁻⁶ cm/s. Moreover, the efflux ratio at 2 h on P-gp (MDR1) amounted to 1.8. For the same molecule, the “% Total Peak Area, parent remaining” value in data set [3] is recorded as 76.3%.
The corresponding values for `[2H]C1([2H])c2ncccc2C(=O)N1Cc1c(F)cc(-c2cccc3nn(C)cc23)cc1F` [compound 3] are 0.051, 0.039, 41.2 ×10⁻⁶ cm/s, 1.55 and 87.0%.
The corresponding values for `[2H]C1([2H])c2ncccc2C(=O)N1Cc1c(F)cc(-c2cccc3nn(C([2H])([2H])[2H])cc23)cc1F` [compound 5] are 0.036, 0.044, 34.2 ×10⁻⁶ cm/s, 1.3 and 87.7%.
